Test results reported in ChEMBL document CHEMBL4477263, “Nature-inspired design of tetraindoles: Optimization of the core structure and evaluation of structure-activity relationship” (Bioorg Med Chem Lett, 2016).
Each block holds one compound with its values, some of them ahead of it. Active and inactive are the calls of the source. No cut-off for these calls is given here.

Columns and labels:
MDA-MB-231 [1] = assay: Antiproliferative activity against human MDA-MB-231 cells after 48 hrs by MTT assay; type: functional, cell-based; conditions: MDA-MB-231, 48 h
Mahlavu = assay: Antiproliferative activity against human Mahlavu cells after 48 hrs by MTT assay; type: functional, cell-based
MIA PaCa-2 [2] = assay: Cell cycle arrest in human MIAPaCa2 cells assessed as accumulation in G2/M phase at 0.6 uM after 48 hrs by propidium iodide staining based flow cytometry relative to control; type: functional
MIA PaCa-2 [3] = assay: Cell cycle arrest in human MIAPaCa2 cells assessed as accumulation in G2/M phase at 0.6 uM after 24 hrs by propidium iodide staining based flow cytometry relative to control; type: functional
SK-HEP1 = assay: Antiproliferative activity against human SKHEP1 cells after 48 hrs by MTT assay; type: functional, cell-based; conditions: SK-HEP1, 48 h
U-87 MG = assay: Antiproliferative activity against human U87 cells after 48 hrs by MTT assay; type: functional, cell-based, U-87MG ATCC
HCT-116 = assay: Antiproliferative activity against human HCT116 cells after 48 hrs by MTT assay; type: functional, cell-based; conditions: HCT-116, 48 h
MIA PaCa-2 [4] = assay: Antiproliferative activity against human MIAPaCa2 cells after 48 hrs by MTT assay; type: functional, cell-based; conditions: MIA PaCa-2, 48 h
NCI-H441 = assay: Antiproliferative activity against human H441 cells after 48 hrs by MTT assay; type: functional, cell-based; conditions: NCI-H441, 48 h
A549 = assay: Antiproliferative activity against human A549 cells after 48 hrs by MTT assay; type: functional, cell-based; conditions: A549, 48 h
NCI-H460 = assay: Antiproliferative activity against human H460 cells after 48 hrs by MTT assay; type: functional, cell-based; conditions: NCI-H460, 48 h
[5] = Antiproliferative activity against human CL1-5 cells after 48 hrs by MTT assay; type: functional, cell-based; conditions: CL1-5, 48 h
MIA PaCa-2 [6] = assay: Cell cycle arrest in human MIAPaCa2 cells assessed as accumulation in S phase at 0.6 uM after 24 hrs by propidium iodide staining based flow cytometry (reference value: 38%); type: functional
MIA PaCa-2 [7] = assay: Cell cycle arrest in human MIAPaCa2 cells assessed as accumulation in S phase at 0.6 uM after 36 hrs by propidium iodide staining based flow cytometry (reference value: 38%); type: functional
MIA PaCa-2 [8] = assay: Cell cycle arrest in human MIAPaCa2 cells assessed as accumulation in S phase at 0.6 uM after 48 hrs by propidium iodide staining based flow cytometry (reference value: 19.7%); type: functional
MIA PaCa-2 [9] = assay: Cell cycle arrest in human MIAPaCa2 cells assessed as accumulation in G2/M phase at 0.6 uM after 36 hrs by propidium iodide staining based flow cytometry relative to control; type: functional
MIA PaCa-2 [10] = assay: Induction of apoptosis in human MIAPaCa2 cells assessed as live cells at 0.6 uM after 12 hrs by Annexin V-FITC/propidium iodide staining based flow cytometry (reference value: 98.9%); type: functional
MIA PaCa-2 [11] = assay: Induction of apoptosis in human MIAPaCa2 cells assessed as live cells at 0.6 uM after 24 hrs by Annexin V-FITC/propidium iodide staining based flow cytometry (reference value: 98.3%); type: functional
MIA PaCa-2 [12] = assay: Induction of apoptosis in human MIAPaCa2 cells assessed as live cells at 0.6 uM after 36 hrs by Annexin V-FITC/propidium iodide staining based flow cytometry (reference value: 98%); type: functional
MIA PaCa-2 [13] = assay: Induction of apoptosis in human MIAPaCa2 cells assessed as live cells at 0.6 uM after 48 hrs by Annexin V-FITC/propidium iodide staining based flow cytometry (reference value: 98.4%); type: functional
MIA PaCa-2 [14] = assay: Induction of apoptosis in human MIAPaCa2 cells assessed as early apoptotic cells at 0.6 uM after 12 hrs by Annexin V-FITC/propidium iodide staining based flow cytometry (reference value: 1%); type: functional
MIA PaCa-2 [15] = assay: Induction of apoptosis in human MIAPaCa2 cells assessed as early apoptotic cells at 0.6 uM after 24 hrs by Annexin V-FITC/propidium iodide staining based flow cytometry (reference value: 1.49%); type: functional
MIA PaCa-2 [16] = assay: Induction of apoptosis in human MIAPaCa2 cells assessed as early apoptotic cells at 0.6 uM after 36 hrs by Annexin V-FITC/propidium iodide staining based flow cytometry (reference value: 1.7%); type: functional
MIA PaCa-2 [17] = assay: Induction of apoptosis in human MIAPaCa2 cells assessed as early apoptotic cells at 0.6 uM after 48 hrs by Annexin V-FITC/propidium iodide staining based flow cytometry (reference value: 1.28%); type: functional
MIA PaCa-2 [18] = assay: Induction of apoptosis in human MIAPaCa2 cells assessed as late apoptotic cells at 0.6 uM after 12 hrs by Annexin V-FITC/propidium iodide staining based flow cytometry (reference value: 0.07%); type: functional
MIA PaCa-2 [19] = assay: Induction of apoptosis in human MIAPaCa2 cells assessed as late apoptotic cells at 0.6 uM after 24 hrs by Annexin V-FITC/propidium iodide staining based flow cytometry (reference value: 0.16%); type: functional
MIA PaCa-2 [20] = assay: Induction of apoptosis in human MIAPaCa2 cells assessed as late apoptotic cells at 0.6 uM after 36 hrs by Annexin V-FITC/propidium iodide staining based flow cytometry (reference value: 0.24%); type: functional
MIA PaCa-2 [21] = assay: Induction of apoptosis in human MIAPaCa2 cells assessed as late apoptotic cells at 0.6 uM after 48 hrs by Annexin V-FITC/propidium iodide staining based flow cytometry (reference value: 0.21%); type: functional
MIA PaCa-2 [22] = assay: Induction of apoptosis in human MIAPaCa2 cells assessed as necrotic cells at 0.6 uM after 12 hrs by Annexin V-FITC/propidium iodide staining based flow cytometry (reference value: 0.04%); type: functional
MIA PaCa-2 [23] = assay: Induction of apoptosis in human MIAPaCa2 cells assessed as necrotic cells at 0.6 uM after 24 hrs by Annexin V-FITC/propidium iodide staining based flow cytometry (reference value: 0.06%); type: functional
MIA PaCa-2 [24] = assay: Induction of apoptosis in human MIAPaCa2 cells assessed as necrotic cells at 0.6 uM after 36 hrs by Annexin V-FITC/propidium iodide staining based flow cytometry (reference value: 0.06%); type: functional
MIA PaCa-2 [25] = assay: Induction of apoptosis in human MIAPaCa2 cells assessed as necrotic cells at 0.6 uM after 48 hrs by Annexin V-FITC/propidium iodide staining based flow cytometry (reference value: 0.06%); type: functional
MIA PaCa-2 [26] = assay: Induction of apoptosis in human MIAPaCa2 cells assessed as down regulation of Bcl-2 protein expression at 0.2 to 0.8 uM after 12 to 48 hrs by western immunoblot analysis; type: functional, cell-based
MIA PaCa-2 [27] = assay: Induction of apoptosis in human MIAPaCa2 cells assessed as down regulation of Bak protein expression at 0.2 to 0.8 uM after 12 to 48 hrs by western immunoblot analysis; type: functional, cell-based
MIA PaCa-2 [28] = assay: Induction of apoptosis in human MIAPaCa2 cells assessed as upregulation of cleaved PARP protein expression at 0.2 to 0.8 uM after 12 to 48 hrs by western immunoblot analysis; type: functional, cell-based
MIA PaCa-2 [29] = assay: Antitumor activity against human MIAPaCa2 cells xenografted in NOD/SCID mouse assessed as tumor growth inhibition at 25 mg/kg, ip administered every 3.5 days per week for 5 weeks measured on day 38 post treatment relative to control; type: functional; conditions: MIA PaCa-2, ip, read-out: TGI
[30] = Toxicity in NOD/SCID mouse xenografted with human MIAPaCa2 cells assessed as body weight loss at 25 mg/kg, ip administered every 3.5 days per week for 5 weeks; type: organism-based; conditions: in vivo
MDA-MB-231 [31] = assay: Antiproliferative activity against human MDA-MB-231 cells at 20 uM after 48 hrs by MTT assay; type: functional, cell-based

SMILES: Oc1ccc2[nH]cc(C(c3ccc4ccc(C(c5c[nH]c6ccc(O)cc56)c5c[nH]c6ccc(O)cc56)cc4c3)c3c[nH]c4ccc(O)cc34)c2c1
IC50 (MDA-MB-231 [1]): > 20 µM

SMILES: Oc1ccc2[nH]cc(C(/C=C/c3ccc(C(CC(c4c[nH]c5ccc(O)cc45)c4c[nH]c5ccc(O)cc45)c4c[nH]c5ccc(O)cc45)cc3)c3c[nH]c4ccc(O)cc34)c2c1 (stereo not drawn)
IC50 (MDA-MB-231 [1]): > 20 µM

SMILES: Oc1ccc2[nH]cc(C(c3ccc4ccc5ccc(C(c6c[nH]c7ccc(O)cc67)c6c[nH]c7ccc(O)cc67)nc5c4n3)c3c[nH]c4ccc(O)cc34)c2c1
IC50 (MDA-MB-231 [1]): > 20 µM

SMILES: Cc1cc(C(c2c[nH]c3ccc(O)cc23)c2c[nH]c3ccc(O)cc23)c(C)cc1C(c1c[nH]c2ccc(O)cc12)c1c[nH]c2ccc(O)cc12
IC50 (MDA-MB-231 [1]): 8 µM

SMILES: Oc1ccc2[nH]cc(C(c3ccc4cc(C(c5c[nH]c6ccc(O)cc56)c5c[nH]c6ccc(O)cc56)ccc4c3)c3c[nH]c4ccc(O)cc34)c2c1
IC50 (MDA-MB-231 [1]): > 20 µM

SMILES: Oc1ccc2[nH]cc(C(c3c[nH]c4ccc(O)cc34)c3ccc(C(c4c[nH]c5ccc(O)cc45)c4c[nH]c5ccc(O)cc45)c4ccccc34)c2c1
IC50 (MDA-MB-231 [1]): 20 µM

SMILES: Oc1ccc2[nH]cc(C(c3ccc(-c4cc(C(c5c[nH]c6ccc(O)cc56)c5c[nH]c6ccc(O)cc56)c(-c5ccc(C(c6c[nH]c7ccc(O)cc67)c6c[nH]c7ccc(O)cc67)cc5)cc4C(c4c[nH]c5ccc(O)cc45)c4c[nH]c5ccc(O)cc45)cc3)c3c[nH]c4ccc(O)cc34)c2c1
Activity (MDA-MB-231 [31]): inactive

SMILES: Oc1ccc2[nH]cc(C(c3ccc(-c4ccc(C(c5c[nH]c6ccc(O)cc56)c5c[nH]c6ccc(O)cc56)cc4)cc3)c3c[nH]c4ccc(O)cc34)c2c1
IC50 (MDA-MB-231 [1]): 10 µM

SMILES: Oc1ccc2[nH]cc(C(Cc3ccc(CC(c4c[nH]c5ccc(O)cc45)c4c[nH]c5ccc(O)cc45)cc3)c3c[nH]c4ccc(O)cc34)c2c1
IC50 (MDA-MB-231 [1]): > 20 µM

Further compounds by falling IC50 (MDA-MB-231 [1]), results first:

IC50 (MDA-MB-231 [1]): 4 µM
SMILES: Oc1ccc2[nH]cc(C(c3c[nH]c4ccc(O)cc34)c3cccc4c(C(c5c[nH]c6ccc(O)cc56)c5c[nH]c6ccc(O)cc56)cccc34)c2c1

IC50 (MDA-MB-231 [1]): 2.45 µM
SMILES: Oc1ccc2[nH]cc(C(c3cc(Br)c(C(c4c[nH]c5ccc(O)cc45)c4c[nH]c5ccc(O)cc45)cc3Br)c3c[nH]c4ccc(O)cc34)c2c1

IC50 (MDA-MB-231 [1]): 2 µM
SMILES: Oc1ccc2[nH]cc(C(/C=C/c3ccc(/C=C/C(c4c[nH]c5ccc(O)cc45)c4c[nH]c5ccc(O)cc45)cc3)c3c[nH]c4ccc(O)cc34)c2c1

IC50 (MDA-MB-231 [1]): 1.5 µM
SMILES: Oc1ccc2[nH]cc(C(c3c[nH]c4ccc(O)cc34)c3c4c(c(C(c5c[nH]c6ccc(O)cc56)c5c[nH]c6ccc(O)cc56)c5ccccc35)CCCC4)c2c1

IC50 (MDA-MB-231 [1]): 1.02 µM
SMILES: Cc1c(C)c(C(c2c[nH]c3ccc(O)cc23)c2c[nH]c3ccc(O)cc23)c(C)c(C)c1C(c1c[nH]c2ccc(O)cc12)c1c[nH]c2ccc(O)cc12

IC50 (MDA-MB-231 [1]): 0.71 µM
SMILES: Oc1ccc2[nH]cc(C(c3c[nH]c4ccc(O)cc34)c3c4ccccc4c(C(c4c[nH]c5ccc(O)cc45)c4c[nH]c5ccc(O)cc45)c4ccccc34)c2c1

IC50 (MDA-MB-231 [1]): 0.56 µM
IC50 (SK-HEP1): 0.47 µM
IC50 (U-87 MG): > 5 µM
IC50 (HCT-116): 1.32 µM
IC50 (MIA PaCa-2 [4]): 0.19 µM
IC50 (NCI-H441): 0.6 µM
IC50 (A549): 2.44 µM
IC50 (NCI-H460): 0.83 µM
SMILES: Oc1ccc2[nH]cc(C(c3c(Cl)c(Cl)c(C(c4c[nH]c5ccc(O)cc45)c4c[nH]c5ccc(O)cc45)c(Cl)c3Cl)c3c[nH]c4ccc(O)cc34)c2c1
IC50 (Mahlavu): 3.5 µM
Activity (MIA PaCa-2 [2]): 20%
Activity (MIA PaCa-2 [3]): 12%
IC50 [5]: 0.63 µM
Activity (MIA PaCa-2 [6]): 55.8%
Activity (MIA PaCa-2 [7]): 51.4%
Activity (MIA PaCa-2 [8]): 46.4%
Activity (MIA PaCa-2 [9]): 16%
Activity (MIA PaCa-2 [10]): 98.6%
Activity (MIA PaCa-2 [11]): 97.6%
Activity (MIA PaCa-2 [12]): 95.6%
Activity (MIA PaCa-2 [13]): 93.3%
Activity (MIA PaCa-2 [14]): 0.71%
Activity (MIA PaCa-2 [15]): 2.1%
Activity (MIA PaCa-2 [16]): 3.21%
Activity (MIA PaCa-2 [17]): 5.28%
Activity (MIA PaCa-2 [18]): 0.58%
Activity (MIA PaCa-2 [19]): 0.3%
Activity (MIA PaCa-2 [20]): 0.96%
Activity (MIA PaCa-2 [21]): 1.18%
Activity (MIA PaCa-2 [22]): 0.09%
Activity (MIA PaCa-2 [23]): 0.03%
Activity (MIA PaCa-2 [24]): 0.2%
Activity (MIA PaCa-2 [25]): 0.23%
Activity (MIA PaCa-2 [26]): Active
Activity (MIA PaCa-2 [27]): Active
Activity (MIA PaCa-2 [28]): Active
inhibition in vivo at 25 mg/kg (MIA PaCa-2 [29]): 35%
Activity [30]: Non-Toxic

IC50 (MDA-MB-231 [1]): 0.56 µM
SMILES: Oc1ccc2[nH]cc(C(c3c(F)c(F)c(C(c4c[nH]c5ccc(O)cc45)c4c[nH]c5ccc(O)cc45)c(F)c3F)c3c[nH]c4ccc(O)cc34)c2c1
